In US10239843B2 (CANCER RESEARCH TECHNOLOGY LIMITED, priority 2014, dated 2019):
Like-named read-outs stand apart in the source and are kept apart here.

Columns and labels:
Human Full Length PARG = Human Full Length PARG (Homo sapiens (Human), UniProt Q86W56); test: PARG enzyme assay (TR-FRET); assay type: biochemical
PARG in HeLa cell line = test: PARG cell assay (PAR chain immunofluorescence after MMS); assay type: cell-based; conditions: HeLa cells
Outline: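 Nuclear poly(ADP-ribose) chains in HeLa cells are read by indirect immunofluorescence with a mouse anti-PAR antibody applied overnight at 4° C after fixing and permeabilising. Cells get 1 h of compound, then 50 μg/mL MMS (final) for another hour. PAR persisting at that point reflects PARG inhibition.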

[1] = Homo sapiens, MMS treatment, read-out: PARG Cell IC50
[2] = read-out: PARG Biochem IC50 Geomean
[3] = Homo sapiens, MMS 50 μg/mL, read-out: PARG Cell IC50 Geomean
[4] = MMS 50 μg/mL, read-out: PARG Cell IC50 Geomean
[5] = MMS treatment, read-out: PARG Cell IC50

Sequence of Human Full Length PARG (Q86W56 whole entry): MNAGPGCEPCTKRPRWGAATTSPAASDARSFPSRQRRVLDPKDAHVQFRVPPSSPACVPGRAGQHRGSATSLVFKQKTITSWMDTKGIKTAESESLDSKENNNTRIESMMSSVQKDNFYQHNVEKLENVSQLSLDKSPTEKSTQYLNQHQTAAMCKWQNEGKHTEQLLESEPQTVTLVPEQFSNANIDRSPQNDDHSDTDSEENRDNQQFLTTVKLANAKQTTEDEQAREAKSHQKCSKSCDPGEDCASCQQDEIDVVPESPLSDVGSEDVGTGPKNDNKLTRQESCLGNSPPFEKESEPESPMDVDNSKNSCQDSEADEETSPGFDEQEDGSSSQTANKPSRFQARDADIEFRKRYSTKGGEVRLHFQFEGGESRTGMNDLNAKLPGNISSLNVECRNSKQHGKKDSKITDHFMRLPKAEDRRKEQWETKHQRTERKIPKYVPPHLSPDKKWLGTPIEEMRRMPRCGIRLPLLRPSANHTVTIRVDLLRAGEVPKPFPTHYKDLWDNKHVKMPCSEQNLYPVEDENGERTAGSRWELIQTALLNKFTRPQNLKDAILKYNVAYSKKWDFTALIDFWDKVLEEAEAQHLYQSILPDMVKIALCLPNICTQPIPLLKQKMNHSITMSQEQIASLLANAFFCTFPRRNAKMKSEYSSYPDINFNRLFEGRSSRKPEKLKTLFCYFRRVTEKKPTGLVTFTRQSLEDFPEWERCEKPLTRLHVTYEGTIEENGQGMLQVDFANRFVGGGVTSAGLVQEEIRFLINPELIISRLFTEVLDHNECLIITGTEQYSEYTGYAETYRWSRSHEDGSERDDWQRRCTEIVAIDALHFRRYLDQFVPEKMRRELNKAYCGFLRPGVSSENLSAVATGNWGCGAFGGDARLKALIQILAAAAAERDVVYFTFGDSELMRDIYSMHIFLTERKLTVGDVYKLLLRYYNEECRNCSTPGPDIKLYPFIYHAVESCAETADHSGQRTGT

| SMILES | IC50 (Human Full Length PARG; read-out: PARG Biochem IC50) | IC50 (PARG in HeLa cell line; [1]) | IC50 (Human Full Length PARG; [2]) | IC50 (PARG in HeLa cell line; [3]) | also measured |
| --- | --- | --- | --- | --- | --- |
| CN(C)CC#Cc1cc(S(=O)(=O)NC2(C)CC2)cc2c(=O)n(Cc3cnn(C)c3)c(=O)[nH]c12 [Example 429, 8-[3-(Dimethylamino)prop-1-ynyl]-N-(1-methylcyclopropyl)-3-[(1-methylpyrazol-4-yl)methyl]-2,4-dioxo-1H-quinazoline-6-sulfonamide] | 1770 nM | 1520 nM |  |  |  |
| Cc1nc(Cn2c(=O)n(Cc3cnn(C)c3)c(=O)c3cc(S(=O)(=O)NC4(CF)CC4)ccc32)no1 [Example 546, N-[1-(Fluoromethyl)cyclopropyl]-1-[(5-methyl-1,2,4-oxadiazol-3-yl)methyl]-3-[(1-methylpyrazol-4-yl)methyl]-2,4-dioxo-quinazoline-6-sulfonamide] | 152 nM | 182 nM |  |  |  |
| Cc1cc(Cn2c(=O)c3cc(S(=O)(=O)NC4(CF)CC4)ccc3n(Cc3noc(C)n3)c2=O)on1 [Example 558, N-[1-(Fluoromethyl)cyclopropyl]-3-[(3-methylisoxazol-5-yl)methyl]-1-[(5-methyl-1,2,4-oxadiazol-3-yl)methyl]-2,4-dioxo-quinazoline-6-sulfonamide] | 207 nM | 177 nM |  |  |  |
| Cn1cc(Cn2c(=O)c3cc(S(=O)(=O)NC4(C#N)CC4)ccc3n(Cc3ccc(F)cc3)c2=O)cn1 [Example 358] |  |  | 59 nM | 346 nM |  |
| Cn1cc(Cn2c(=O)c3cc(S(=O)(=O)NC4(C)CC4)ccc3n(C(F)F)c2=O)cn1 [Example 606, 1-(Difluoromethyl)-N-(1-methylcyclopropyl)-3-[(1-methylpyrazol-4-yl)methyl]-2,4-dioxo-quinazoline-6-sulfonamide] | 1470 nM | 248 nM |  |  |  |
| Cc1nc(C)c(Cn2c(=O)n(Cc3cnn(C)c3)c(=O)c3cc(S(=O)(=O)NC4(C)CC4)ccc32)s1 [Example 170] |  |  | 6 nM | 20 nM |  |
| Cn1cc(Cn2c(=O)c3cc(S(=O)(=O)NC4(C#N)CC4)ccc3n(CC3CCOC3)c2=O)cn1 (stereo not shown) [Example 377] |  |  | 96 nM | 3990 nM |  |
| Cc1cc(Cn2c(=O)c3cc(S(=O)(=O)NC4(C)CC4)ccc3n(CC3CCCO3)c2=O)on1 (stereo not shown) [Example 267] |  |  | 234 nM |  | IC50 (PARG in HeLa cell line; [4]): 248 nM |
| Cn1cc(Cn2c(=O)c3cc(S(=O)(=O)NC4(CF)CC4)ccc3n(CC3CCCC3)c2=O)cn1 [Example 608, 1-(Cyclopentylmethyl)-N-[1-(fluoromethyl)cyclopropyl]-3-[(1-methylpyrazol-4-yl)methyl]-2,4-dioxo-quinazoline-6-sulfonamide] | 64 nM | 50 nM |  |  |  |
| Cc1cc(Cn2c(=O)c3cc(S(=O)(=O)NC4(C)CC4)ccc3n(C(F)F)c2=O)on1 [Example 605, 1-(Difluoromethyl)-N-(1-methylcyclopropyl)-3-[(3-methylisoxazol-5-yl)methyl]-2,4-dioxo-quinazoline-6-sulfonamide] | 1370 nM | 588 nM |  |  |  |
| Cc1cc(Cn2c(=O)c3cc(S(=O)(=O)NC4(C)CC4)ccc3n(CCN3CCOCC3)c2=O)on1 [Example 276] |  |  | 255 nM | 536 nM |  |
| Cn1cc(Cc2cc3cc(S(=O)(=O)NC4(C)CC4)ccc3n(C)c2=O)cn1 [Example 491, 1-Methyl-N-(1-methylcyclopropyl)-3-[(1-methylpyrazol-4-yl)methyl]-2-oxo-quinoline-6-sulfonamide] | 3440 nM |  |  |  | IC50 (PARG in HeLa cell line; [5]): 1790 nM |
| Cc1ccc(Cn2c(=O)n(Cc3cnn(C)c3)c(=O)c3cc(S(=O)(=O)NC4(CF)CC4)ccc32)cn1 [Example 573, N-[1-(Fluoromethyl)cyclopropyl]-3-[(1-methylpyrazol-4-yl)methyl]-1-[(6-methyl-3-pyridyl)methyl]-2,4-dioxo-quinazoline-6-sulfonamide] | 71 nM | 167 nM |  |  |  |
| CCOC(=O)Cn1c(=O)c2cc(S(=O)(=O)NC3(C)CC3)ccc2n(C)c1=O [Example 468, Ethyl 2-[1-methyl-6-[(1-methylcyclopropyl)sulfamoyl]-2,4-dioxo-quinazolin-3-yl]acetate] | 3980 nM | 1120 nM |  |  |  |
| Cc1cc(Cn2c(=O)c3cc(S(=O)(=O)NC4(C)CC4)ccc3n(CC(C)(C)C#N)c2=O)on1 [Example 452, 1-(2-Cyano-2-methyl-propyl)-N-(1-methylcyclopropyl)-3-[(3-methylisoxazol-5-yl)methyl]-2,4-dioxo-quinazoline-6-sulfonamide] | 202 nM | 280 nM |  |  |  |
| CCn1cc(Cn2c(=O)c3cc(S(=O)(=O)NC4(C)CC4)ccc3n(C)c2=O)cn1 [Example 181] |  |  | 447 nM | 680 nM |  |
| Cn1cc(Cn2c(=O)c3cc(S(=O)(=O)NC4(C)CC4)ccc3n(CC3(C)CC3(F)F)c2=O)cn1 (stereo not shown) [Example 329] |  |  | 114 nM | 129 nM |  |
| Cn1cc(Cn2c(=O)c3cc(S(=O)(=O)NC4(CF)CC4)ccc3n(CC(F)(F)F)c2=O)cn1 [Example 623, N-[1-(Fluoromethyl)cyclopropyl]-3-[(1-methylpyrazol-4-yl)methyl]-2,4-dioxo-1-(2,2,2-trifluoroethyl)quinazoline-6-sulfonamide] | 2670 nM | 10000 nM |  |  |  |

| SMILES | IC50 (Human Full Length PARG; read-out: PARG Biochem IC50) | IC50 (PARG in HeLa cell line; [1]) | IC50 (Human Full Length PARG; [2]) | IC50 (PARG in HeLa cell line; [3]) | also measured |
| --- | --- | --- | --- | --- | --- |
| C#CCn1c(=O)n(Cc2cc(C)no2)c(=O)c2cc(S(=O)(=O)NC3(C)CC3)ccc21 [Example 198] |  |  | 105 nM | 76 nM |  |
| Cc1cc(Cn2c(=O)c3cc(S(=O)(=O)NC4(C)CC4)ccc3n(CC3(F)COC3)c2=O)on1 [Example 350] |  |  | 320 nM | 341 nM |  |
| Cn1cc(Cn2c(=O)c3cc(S(=O)(=O)NC4(CF)CC4)ccc3n(Cc3nncn3C)c2=O)cn1 [Example 584, N-[1-(Fluoromethyl)cyclopropyl]-3-[(1-methylpyrazol-4-yl)methyl]-1-[(4-methyl-1,2,4-triazol-3-yl)methyl]-2,4-dioxo-quinazoline-6-sulfonamide] | 171 nM |  |  |  | IC50 (PARG in HeLa cell line; [5]): 25800 nM |
| Cn1c(=O)n(CC2COC2)c(=O)c2cc(S(=O)(=O)NC3(C)CC3)ccc21 [Example 481, 1-Methyl-N-(1-methylcyclopropyl)-3-(oxetan-3-ylmethyl)-2,4-dioxo-quinazoline-6-sulfonamide] | 7000 nM | 2840 nM |  |  |  |
| Cn1cc(Cn2c(=O)c3cc(S(=O)(=O)NC4(C)CC4)ccc3n(CCC3CC3)c2=O)cn1 [Example 296] |  |  | 73 nM | 70 nM |  |
| Cn1cc(Cn2c(=O)c3cc(S(=O)(=O)NC4(C)CC4)ccc3n(CCN3CCOCC3)c2=O)cn1 [Example 271] |  |  | 97 nM |  | IC50 (PARG in HeLa cell line; [4]): 161 nM |
| Cn1cc(Cn2c(=O)c3cc(S(=O)(=O)NC4(CF)CC4)ccc3n(CC3CCOCC3)c2=O)cn1 [Example 442, N-[1-(Fluoromethyl)cyclopropyl]-3-[(1-methylpyrazol-4-yl)methyl]-2,4-dioxo-1-(tetrahydropyran-4-ylmethyl)quinazoline-6-sulfonamide] | 43 nM | 134 nM |  |  |  |
| Cc1cc(Cn2c(=O)n(Cc3cnn(C)c3)c(=O)c3cc(S(=O)(=O)NC4(CF)CC4)ccc32)[nH]n1 [Example 561, N-[1-(Fluoromethyl)cyclopropyl]-3-[(1-methylpyrazol-4-yl)methyl]-1-[(3-methyl-1H-pyrazol-5-yl)methyl]-2,4-dioxo-quinazoline-6-sulfonamide] | 95 nM | 570 nM |  |  |  |
| C#CC1(NS(=O)(=O)c2ccc3c(c2)c(=O)n(Cc2cnn(C)c2)c(=O)n3CC2CC2)CC1 [Example 432, 1-(Cyclopropylmethyl)-N-(1-ethynylcyclopropyl)-3-[(1-methylpyrazol-4-yl)methyl]-2,4-dioxo-quinazoline-6-sulfonamide] | 486 nM |  |  |  | IC50 (PARG in HeLa cell line; [5]): 261 nM |
| Cn1cc(Cn2c(=O)c3cc(S(=O)(=O)NC4(CF)CC4)ccc3n(Cc3cocn3)c2=O)cn1 [Example 607, N-[1-(Fluoromethyl)cyclopropyl]-3-[(1-methylpyrazol-4-yl)methyl]-1-(oxazol-4-ylmethyl)-2,4-dioxo-quinazoline-6-sulfonamide] | 63 nM | 76 nM |  |  |  |
| Cc1ncc(Cn2c(=O)[nH]c3ccc(S(=O)(=O)NC4(C)CC4)cc3c2=O)s1 [Example 220, N-(1-Methylcyclopropyl)-3-[(2-methylthiazol-5-yl)methyl]-2,4-dioxo-1H-quinazoline-6-sulfonamide] |  |  | 273 nM | 481 nM |  |
| COc1cccc(Cn2c(=O)n(Cc3cc(C)no3)c(=O)c3cc(S(=O)(=O)NC4(C)CC4)ccc32)c1 [Example 200] |  |  | 250 nM | 223 nM |  |
| Cc1cc(Cn2c(=O)c3cc(S(=O)(=O)NC4(CF)CC4)ccc3n(Cc3ncn(C)n3)c2=O)on1 [Example 553, N-[1-(Fluoromethyl)cyclopropyl]-3-[(3-methylisoxazol-5-yl)methyl]-1-[(1-methyl-1,2,4-triazol-3-yl)methyl]-2,4-dioxo-quinazoline-6-sulfonamide] | 451 nM |  |  |  | IC50 (PARG in HeLa cell line; [5]): 1510 nM |
| C#CCn1c(=O)n(Cc2cnn(C)c2)c(=O)c2cc(S(=O)(=O)NC3(C#N)CC3)ccc21 [Example 355] |  |  | 122 nM | 953 nM |  |
| CN1CCC(Cn2c(=O)n(Cc3cnn(C)c3)c(=O)c3cc(S(=O)(=O)NC4(C)CC4)ccc32)CC1 [Example 372] |  |  | 146 nM | 2140 nM |  |
| Cc1cc(Cn2c(=O)c3cc(S(=O)(=O)NC4(C)CC4)cc(Br)c3n(C)c2=O)on1 [Example 482, 8-Bromo-1-methyl-N-(1-methylcyclopropyl)-3-[(3-methylisoxazol-5-yl)methyl]-2,4-dioxo-quinazoline-6-sulfonamide] | 830 nM | 274 nM |  |  |  |
| Cc1cc(Cn2c(=O)n(Cc3cnn(C)c3)c(=O)c3cc(S(=O)(=O)NC4(CF)CC4)ccc32)n(C)n1 [Example 437, 1-[(2,5-Dimethylpyrazol-3-yl)methyl]-N-[1-(fluoromethyl)cyclopropyl]-3-[(1-methylpyrazol-4-yl)methyl]-2,4-dioxo-quinazoline-6-sulfonamide] | 23 nM | 165 nM |  |  |  |
